Reference: patent publication US6653442B1, “Protegrins” (priority 1993, dated 2003)
Bridge positions count the residues as written; N and C are the ends. Peptide text beside a SMILES is read from it.

How the values were obtained:
Candida albicans = test: Radial diffusion assay in 25 mM borate buffer, Candida albicans; assay type: cell-based
[1] = test system: N. gonorrhoeae strains FA 19 and F 62; conditions: for log reduction in CFU per ml: strains FA 19 and F 62
Experimental: Nonpiliated transparent variants of strains FA 19 and F 62 were propagated on GCB agar plates containing glucose and iron supplements overnight at 37° C. under 3.8% V/V CO2. These strains were chosen for their adaptability to the assay.
The overnight growth is removed from the agar plate and suspended in GCB broth containing supplements and sodium bicarbonate and grown with shaking at 37° C. to mid log phase. The culture is diluted 1:100 in GCB broth to give about 10^6 CFU/ml and serial dilutions were plated onto GCB agar.
Ten μl of each dilution is added to a sterile polystyrene tube containing 90 μl of diluted bacteria and the tubes are shaken at 37° C. for 45 minutes. The contents are serially diluted 1:10 and plated on to GCB agar plates which are incubated in a CO2 incubator. CFU are counted after 24 hours and the log bactericidal activity calculated.

[2] = test system: lipid polysaccharide (LPS) of E. coli strain 0.55B5; test: Limulus amebocyte lysate (LAL) test for endotoxin binding; assay type: biochemical
L. monocytogenes = test: Radial diffusion assay in 25 mM borate buffer, L. monocytogenes; assay type: cell-based
[3] = Autoclaving, retained antimicrobial activity; assay type: physicochemical; conditions: autoclaved
[4] = Radial diffusion assay in 25 mM borate buffer (Table 4); assay type: cell-based; conditions: buffer (25 mM borate buffer, pH 7.4)
Experimental: Contact lens solutions are typically formulated with borate buffered physiological saline and may or may not contain EDTA in addition. Protegrins in the form of the synthetic PG-3 amide and synthetic PG acid were tested generally in the assay described in Example 1 wherein all underlay gels contain 25 mM borate buffer, pH […] tryptocase soy broth ([…] TSB powder) and […]. Additions included either 100 mM NaCl, 1 mM EDTA or a combination thereof. Other test compounds used as controls were the defensin NP-1 and lysozyme. Dose response curves were determined.

[5] = test system: Listeria monocytogenes, strain EGD; test: Radial diffusion assay in agarose gels, L. monocytogenes; assay type: cell-based; conditions: radial diffusion, underlay agar pH 6.5
Experimental: Aliquots (66 μl) of each fraction were dried by vacuum centrifugation and resuspended in 6.6 μl of 0.01% acetic acid. Five μl samples of this concentrate were tested for antimicrobial activity against E. coliML-3, L. monocytogenes, strain EGD and C. albicans, strain 820, using radiodiffusion and gel overlay techniques as described by Lehrer, R. I. et al. J Immunol Meth (1991) 137:167-173. […] The units of activity in the radial diffusion assay were measured as described; 10 units correspond to a 1 mm diameter clear zone around the sample well. Activity was found in a large number of fractions.
The radial diffusion assay in agarose gels described in Example 1 was also used to test the activity of the purified protegrins. FIGS. 4a, 4b and 4c show the results against three test organisms in units described as above.
The antimicrobial activity of the linearalized forms was also compared with that of the native protegrins. Both linearalized and cyclic forms of the protegrins tested continue to show antimicrobial activity, although the effectiveness of these peptides as antimicrobials depends on the nature of the target organism and on the test conditions. The antimicrobial activity of native PG-1 and its linearalized form (cam-PG-1) and PG-3 and its linearalized form (cam-PG-3) were tested according to the procedure set forth in Example 1 as described by Lehrer, R. I. et al. J Immunol Meth (1991) 137:167-173.
Using standard solid phase techniques, a protegrin having the amino acid sequence of PG-1, but wherein every amino acid is in the D form was prepared. This form of protegrin was tested against E. coli, L. monocytogenes, C. albicans and other microbes in the absence and presence of protease and otherwise as described for the radiodiffusion assay in agarose gels set forth in Example 1.
The kite and bullet PG-1 compounds prepared in Example 12 were tested for antimicrobial activity using the radial diffusion assay described in Example 1 as published by Lehrer, R. I. et al., J Immunol Meth (1991) 137:167-173, except that the underlay agars contained […] sodium phosphate buffer with a final pH of 7.4. As described in Example 1, 0.3 mg/ml tripticase soy broth powder and 1% agarose were used as well in the underlay agar. In some cases 100 mM NaCl or RPMI plus 2.5% normal human serum (NHS) was added to the agar.

C. albicans, strain 820 = assay type: cell-based, Candida albicans; conditions: radial diffusion, underlay agar pH 6.5
Experimental: Similarly, using C. albicans as a target organism, underlayers were prepared with 10 mM sodium phosphate with and without 10% normal human serum.

E. coli ML-35P = test: Radial diffusion assay in agarose gels, E. coli; assay type: cell-based; conditions: radial diffusion, underlay agar pH 6.5
HIVJR-CSF and HIVJR-FL = test: HIV infection of human peripheral blood mononuclear cells, p24 antigen
Experimental: Briefly, the mononuclear cell fraction is recovered from normal donor leukopacs from the American Red Cross using a Ficoll-hypaque density gradient. The mononuclear cells are resuspended at 1×10^6 cells per ml in RPMI 1640 medium with 20% fetal bovine serum, 1% penn/strep with fungizone and 0.5% PHA and incubated 24 hours at 37° C. in 5% CO2. The cells are centrifuged, washed and then expanded for 24 hours in growth medium.
Non-laboratory adapted, cloned HIVJR-CSF and HIVJR-FL were electroporated into the human peripheral blood mononuclear cells prepared as described above. Titers were determined and in general, multiplicities of infection (MOI) of about 4,000 infectious units per cell are used (which corresponds to 25-40 picograms per ml HIV p24 antigen in the supernatant).
In the assay, the HIV stocks prepared as above were diluted to the correct MOI and the PBM are added to 24 well plates at a concentration of 2×10^6 per ml. One μl total volume is added to each well. The peptide to be tested is added in growth medium to achieve the final desired concentration. Then the appropriate number of MOI are added. To assay viral growth, 200 μl of supernatant is removed on days 3 and 7 and the concentration of p24 antigen is determined using a commercial assay (Coulter Immunology, Hialeah, Fla.). Controls include duplicate wells containing cells alone, cells plus peptide at 5 μg/ml cells with virus but not peptide and cells with virus in the presence of AZT at 10^−5 M-10^−8 M.

[6] = test system: E. coli ML-35 (serum sensitive); test: Underlay gel assay with and without normal human serum, E. coli ML-35; assay type: cell-based; conditions: 10 mM sodium phosphate buffer, pH 7.4
[7] = 2.5 μg peptide in 0.2 ml, LPS 0.05 endotoxin unit/ml
[8] = 5 μg peptide in 0.2 ml, LPS 0.05 endotoxin unit/ml
[9] = 10 μg peptide in 0.2 ml, LPS 0.05 endotoxin unit/ml

Molecule | ESTIMATED MINIMAL FUNGICIDAL CONCENTRATIONS (Candida albicans; 25 mM borate buffer) [µg/mL] | ESTIMATED MINIMAL FUNGICIDAL CONCENTRATIONS (Candida albicans; borate buffer + 120 mM NaCl) [µg/mL] | ESTIMATED MINIMAL FUNGICIDAL CONCENTRATIONS (Candida albicans; borate buffer + EDTA & NaCl) [µg/mL] | log reduction in CFU per ml [1] [log] | gel formation in LAL test [2, 7] | ESTIMATED MINIMAL BACTERICIDAL CONCENTRATIONS (L. monocytogenes; 25 mM borate buffer) [µg/mL] | ESTIMATED MINIMAL BACTERICIDAL CONCENTRATIONS (L. monocytogenes; borate buffer + 120 mM NaCl) [µg/mL] | ESTIMATED MINIMAL BACTERICIDAL CONCENTRATIONS (L. monocytogenes; borate buffer + EDTA & NaCl) [µg/mL] | antimicrobial activity against E. coli, L. monocytogenes and C. albicans after autoclaving [3] | ESTIMATED MINIMAL FUNGICIDAL CONCENTRATIONS [4] [µg/mL] | gel formation in LAL test [2, 8] | gel formation in LAL test [2, 9] | other results
CC(C)C[C@H](NC(=O)CNC(=O)CNC(=O)CNC(=O)[C@@H](N)CCCNC(=N)N)C(=O)N[C@H]1CSSC[C@@H](C(=O)N[C@H](C(=O)NCC(=O)N[C@@H](CCCNC(=N)N)C(N)=O)C(C)C)NC(=O)[C@H](C(C)C)NC(=O)[C@@H]2CSSC[C@H](NC(=O)[C@H](Cc3ccc(O)cc3)NC1=O)C(=O)N[C@@H](CCCNC(=N)N)C(=O)N[C@@H](CCCNC(=N)N)C(=O)N[C@@H](CCCNC(=N)N)C(=O)N[C@@H](Cc1ccccc1)C(=O)N2 [sPG-3 amide] (H-RGGGLCYCRRRFCVCVGR-NH2; disulfide 6-15, 8-13; N-terminus assumed) | 19.0 | 7.7 | 7.0 | > 5 | no gel | 21.0 | 5.7 | 5.2 | retaining full antimicrobial activity in all cases | 13.0 |  |  | gel formation in LAL test ([2]; 0.5 μg peptide, 0.05 E.U.): no gel; gel formation in LAL test ([2]; 1.0 μg peptide, 0.05 E.U.): no gel; gel formation in LAL test ([2]; 1.0 μg peptide, 0.10 E.U.): no gel; gel formation in LAL test ([2]; 1.0 μg peptide, 0.25 E.U.): no gel; gel formation in LAL test ([2]; 2.5 μg peptide, 0.05 E.U.): no gel; gel formation in LAL test ([2]; 2.5 μg peptide, 0.10 E.U.): no gel; gel formation in LAL test ([2]; 2.5 μg peptide, 0.25 E.U.): no gel
R-G-G-R-L-C-Y-C-R-R-R-F-C-I-C-V (RGGRLCYCRRRFCICV) [PG-2] |  |  |  |  | no gel |  |  |  |  |  | no gel | no gel | reduction in CFU per ml ([1]; 45 minutes at 37° C.): 2.6 fold; antibacterial activity against Listeria monocytogenes (FIG. 4b) [5]: effective against the three organisms tested but was not as active as the other two peptides; gel formation in LAL test ([2]; 1.0 μg peptide in 0.2 ml, LPS 0.05 endotoxin unit/ml): no gel; antifungal activity against Candida albicans (FIG. 4c) (C. albicans, strain 820): effective against the three organisms tested but was not as active as the other two peptides; antibacterial activity against E. coli (FIG. 4a) (E. coli ML-35P): effective against the three organisms tested but was not as active as the other two peptides; anti-HIV activity level relative to PG-1 (HIVJR-CSF and HIVJR-FL): approximately 5 fold less
CC(C)C[C@H](NC(=O)[C@H](CCCNC(=N)N)NC(=O)CNC(=O)CNC(=O)[C@@H](N)CCCNC(=N)N)C(=O)N[C@H]1CSSC[C@@H](C(=O)N[C@H](C(=O)NCC(=O)N[C@@H](CCCNC(=N)N)C(N)=O)C(C)C)NC(=O)[C@H](C(C)C)NC(=O)[C@@H]2CSSC[C@H](NC(=O)[C@H](Cc3ccc(O)cc3)NC1=O)C(=O)N[C@@H](CCCNC(=N)N)C(=O)N[C@@H](CCCNC(=N)N)C(=O)N[C@@H](CCCNC(=N)N)C(=O)N[C@@H](Cc1ccccc1)C(=O)N2 [synthetic PG-1] |  |  |  |  |  |  |  |  |  |  |  |  | minimal bacteriocidal concentration ([6]; absence of serum): approximately 1.0 μg/ml; minimal bacteriocidal concentration ([6]; presence of […] normal human serum): about 0.1 μg/ml
CC(C)C[C@H](NC(=O)CNC(=O)CNC(=O)CNC(=O)[C@@H](N)CCCNC(=N)N)C(=O)N[C@H]1CSSC[C@@H](C(=O)N[C@H](C(=O)NCC(=O)N[C@@H](CCCNC(=N)N)C(=O)O)C(C)C)NC(=O)[C@H](C(C)C)NC(=O)[C@@H]2CSSC[C@H](NC(=O)[C@H](Cc3ccc(O)cc3)NC1=O)C(=O)N[C@@H](CCCNC(=N)N)C(=O)N[C@@H](CCCNC(=N)N)C(=O)N[C@@H](CCCNC(=N)N)C(=O)N[C@@H](Cc1ccccc1)C(=O)N2 [sPG-3 acid] (H-RGGGLCYCRRRFCVCVGR-OH; disulfide 6-15, 8-13; N-terminus assumed) | 19.0 | 9.2 | 9.3 | > 5 | trace | 30.0 | 7.0 | 7.0 | retaining full antimicrobial activity in all cases | 15.0 | no gel | no gel | 
